Measured values published in patent US9688664B2, “Modulators of fatty acid amide hydrolase” (JANSSEN PHARMACEUTICA NV, priority 2010, dated 2017).
Entries after “also recorded” stand apart in the source; their conditions may differ. Read-outs that look alike come from different tables or passages of the source.

How the values were obtained:
rat = assay: Primary Observation (Irwin) Test in the rat; format: in vivo; details: for Hypothermia: at 15 to 60 min and at 180 min; for Decreased muscle tone (rats affected/tested): at 60 to 120 min
Method: Primary Observation (Irwin) Test in the Rat
The method, which detects the first toxic dose, the active dose-range and the main effects of a test substance on behavior and physiological function, follows that described by Irwin et al., Psychopharmacologia, 1968, 13, 222-257. […] All animals within a treatment group were observed simultaneously. Behavioral modifications, physiological and neurotoxicity symptoms, rectal temperature and pupil diameter were recorded according to a standardized observation grid derived from that of Irwin. The grid contains the following items: death, convulsions, tremor, Straub tail, altered activity, jumping, abnormal gait (rolling, tip-toe), motor uncoordination, altered abdominal muscle tone, loss of grasping, akinesia, catalepsy, loss of traction, loss of balance, fore-paw treading, writhes, piloerection, stereotypies (sniffing, chewing, head movements), head twitches, scratching, altered respiration, aggression, altered fear/startle, altered reactivity to touch, ptosis, exophthalmia, loss of righting reflex, loss of corneal reflex, analgesia, defecation/diarrhea, salivation, lacrimation, rectal temperature (hypothermia/hyperthermia) and pupil diameter (myosis/mydriasis). The test substances were evaluated at 2 doses (10 and 60 mg/kg), administered p.o. immediately before the test, and compared with a vehicle control group. Observations were performed 15, 30, 60, 120 and 180 minutes after administration of the test substances/vehicles and also 24 hours later.

CREAE mice = details: cited from earlier work
rat FAAH = rat FAAH (Rattus norvegicus (Rat), UniProt P97612); assay: Assay Method 2: rat FAAH assay (3H-anandamide hydrolysis in cell homogenate); format: biochemical; details: average of results
Method: A. Transfection of Cells with Rat FAAH
(§1) A 10-cm tissue culture dish with a confluent monolayer of SK-N-MC cells was split 2 days (d) prior to transfection. Using sterile technique, the media was removed and the cells were detached from the dish by the addition of trypsin. One fifth of the cells were then placed onto a new 10-cm dish. Cells were grown in a 37° C. incubator with 5% CO2 in Minimal Essential Media Eagle with 10% Fetal Bovine Serum. After 2 d, cells were approximately 80% confluent. These cells were removed from the dish with trypsin and pelleted in a clinical centrifuge. The pellet was re-suspended in 400 μL complete media and transferred to an electroporation cuvette with a 0.4 cm gap between the electrodes. Supercoiled rat FAAH cDNA (1 μg) was added to the cells and mixed. The voltage for the electroporation was set at 0.25 kV, and the capacitance was set at 960 μF. After electroporation, the cells were diluted into complete media (10 mL) and plated onto four 10-cm dishes. Because of the variability in the efficiency of electroporation, four different concentrations of cells were plated. The ratios used were 1:20, 1:10, and 1:5, with the remainder of the cells being added to the fourth dish. The cells were allowed to recover for 24 h before adding the selection media (complete media with 600 μg/mL G418). After 10 d, dishes were analyzed for surviving colonies of cells. […]

CYP2D6 = CYP2D6 (Homo sapiens (Human), UniProt P10635); assay: Drug-Drug Interaction (DDI) assay, CYP inhibition in human liver microsomes
Method: Drug-Drug Interaction (DDI) Assay
The assay was set up and executed using a Biomek FXp robotic liquid handling workstation (Beckman Coulter Corp., Fullerton, Calif.), integrated with a Cytomat shaking incubator set at 37° C. […] A batch of human liver microsomes from 50 donors, pooled and characterized by BD Gentest, (Cat #457111, lot 01220, 20 mg/mL in 250 mM sucrose) was used. Each substrate was incubated at a protein concentration of 0.1, 0.15 or 0.2 mg/mL in a total incubation volume of 0.16 mL. The incubates were prepared in 100 mM potassium phosphate buffer (pH 7.4) supplemented with 5 mM magnesium chloride and 1 mM EDTA. Quinidine was used as a positive control inhibitor for CYP2D6. Quinidine was prepared as a working solution in organic solvent (primarily methanol, with DMSO and acetonitrile as secondary solvents) and was spiked into the microsomal suspension to yield the desired concentration level. The solution was then serially diluted with additional microsomal suspension to yield eight concentration levels. Final organic content was less than 0.07%. […] The final organic content was 0.2%. Incubations were performed in triplicate for each probe substrate.
The control inhibitor (quinidine) and marker substrate (dextromethorphan or bufuralol) were transferred to the incubation vessels (60 μL aliquots each). After a pre-incubation period at 37° C., the reactions were initiated by the addition of a 40 μL aliquot of NADPH regenerating system (BD Gentest). […] Incubation times were 12 minutes for both dextromethorphan and bufuralol. Reactions were terminated by the direct addition of acetonitrile (160 μL) to the incubation mix followed by transfer to a pooling plate containing additional acetonitrile (400 μL).
The incubation reactions were pooled by equal test compound or control inhibitor concentration, transferred to a Phenomenex Strata™ Impact protein precipitation filter plate containing acetonitrile and internal standards (100 μL of a mixture of the following deuterated compounds ranging in concentration from 0.5 to 2.8 μM: hydroxybufuralol-d9, dextrorphan-d3). The resulting filtrate was evaporated to dryness under a nitrogen flow, then reconstituted in 250 μL mobile phase (1:1 methanol:water, containing 0.1% acetic acid). Samples and standards were analyzed on a Sciex API4000 triple quadrupole mass spectrometer. The data were acquired in Analyst 1.4.1 (Applied Biosystems/MDS Sciex). For IC50 assays, the area ratios of the metabolite and internal standard chromatographic peaks were transferred to SigmaPlot (version 8.0) and plotted on a semi-log scale (percent residual activity vs. inhibitor concentration) to determine the IC50 value.

FAAH [1] = molecular target: T1, FAAH (Homo sapiens (Human), UniProt O00519); assay: Assay Method 1: human FAAH assay (3H-anandamide hydrolysis in cell homogenate); format: biochemical; details: average of results
Method: A. Transfection of Cells with Human FAAH
as §1, with “Supercoiled human” for “Supercoiled rat”

[2] = in vivo; cited from earlier work
[3] = in vivo; cited from earlier work; remark: listed apart in the source
rats [4] = details: cited from earlier work
rats [5] = details: rat; cited from earlier work
rats [6] = details: cited from earlier work; remark: listed apart in the source
FAAH [7] = molecular target: T1, FAAH; details: cited from earlier work
rats [8] = details: cited from earlier work; remark: listed apart in the source
[9] = read-out: 2D6 Bufuralol IC50, substrate bufuralol
[10] = read-out: 2D6 Dextromethorphan IC50, substrate dextromethorphan

CYP2D6, sequence (P10635 whole entry): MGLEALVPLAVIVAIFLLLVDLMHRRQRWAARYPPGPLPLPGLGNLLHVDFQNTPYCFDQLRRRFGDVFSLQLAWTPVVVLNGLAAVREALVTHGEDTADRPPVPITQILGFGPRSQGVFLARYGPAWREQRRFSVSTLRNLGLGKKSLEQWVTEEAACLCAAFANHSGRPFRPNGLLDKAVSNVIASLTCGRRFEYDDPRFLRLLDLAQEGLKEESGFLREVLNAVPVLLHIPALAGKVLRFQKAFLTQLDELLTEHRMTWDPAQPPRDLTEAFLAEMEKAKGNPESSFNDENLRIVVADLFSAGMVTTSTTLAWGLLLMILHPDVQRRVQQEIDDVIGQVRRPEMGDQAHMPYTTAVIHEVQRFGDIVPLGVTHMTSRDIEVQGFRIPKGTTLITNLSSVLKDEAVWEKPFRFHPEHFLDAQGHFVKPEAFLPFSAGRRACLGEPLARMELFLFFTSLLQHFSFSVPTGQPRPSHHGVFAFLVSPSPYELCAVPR
T1 sequence (O00519 whole entry): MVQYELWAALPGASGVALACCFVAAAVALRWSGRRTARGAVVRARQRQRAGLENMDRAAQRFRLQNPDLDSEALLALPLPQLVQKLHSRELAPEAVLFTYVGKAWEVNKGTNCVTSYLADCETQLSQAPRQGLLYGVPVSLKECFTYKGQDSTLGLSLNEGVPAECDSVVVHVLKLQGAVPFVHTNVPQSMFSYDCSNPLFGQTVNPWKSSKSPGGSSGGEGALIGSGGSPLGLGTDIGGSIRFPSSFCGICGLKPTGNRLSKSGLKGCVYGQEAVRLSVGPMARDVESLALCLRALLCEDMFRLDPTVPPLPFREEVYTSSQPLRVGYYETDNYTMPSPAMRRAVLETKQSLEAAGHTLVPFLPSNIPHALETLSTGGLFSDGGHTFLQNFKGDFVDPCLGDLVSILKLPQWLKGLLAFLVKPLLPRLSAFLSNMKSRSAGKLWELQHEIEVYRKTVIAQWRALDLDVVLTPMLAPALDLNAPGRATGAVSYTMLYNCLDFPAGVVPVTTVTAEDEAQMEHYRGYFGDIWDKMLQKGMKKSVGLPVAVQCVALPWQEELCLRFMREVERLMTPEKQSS
rat FAAH, sequence (P97612 whole entry): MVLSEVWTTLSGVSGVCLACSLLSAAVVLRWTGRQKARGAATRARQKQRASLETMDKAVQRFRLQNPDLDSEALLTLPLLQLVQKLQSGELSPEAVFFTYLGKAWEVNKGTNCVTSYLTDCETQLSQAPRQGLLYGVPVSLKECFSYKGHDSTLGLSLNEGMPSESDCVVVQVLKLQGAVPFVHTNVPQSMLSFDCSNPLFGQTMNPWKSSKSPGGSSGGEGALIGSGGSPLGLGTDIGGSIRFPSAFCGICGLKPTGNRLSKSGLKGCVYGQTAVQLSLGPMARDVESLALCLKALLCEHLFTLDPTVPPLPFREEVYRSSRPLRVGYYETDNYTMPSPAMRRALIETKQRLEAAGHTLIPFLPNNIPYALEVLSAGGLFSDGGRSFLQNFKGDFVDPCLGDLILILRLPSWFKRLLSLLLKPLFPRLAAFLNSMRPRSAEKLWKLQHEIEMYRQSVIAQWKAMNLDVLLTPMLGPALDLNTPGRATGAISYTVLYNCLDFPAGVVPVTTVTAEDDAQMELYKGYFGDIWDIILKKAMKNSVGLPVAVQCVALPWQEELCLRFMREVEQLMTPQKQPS

With `Cl.O=C(Nc1cnccc1Cl)N1CCN(Cc2ccc3c(c2)OC(F)(F)O3)CC1` the “Increased reactivity to touch (rats affected/tested)” value (rat; 10 mg/kg p.o., at 180 min, hydrochloride) was 1 out of 4, the “Sedative/depressant effects (sedation, motor signs and hypothermia)” value (rat; 60 mg/kg p.o.) was “not observed” and the “Increased abdominal muscle tone (rats affected/tested)” value (rat; 60 mg/kg p.o., at 60 min) was 1 out of 4. The “Increased reactivity to touch (rats affected/tested)” value (rat; 60 mg/kg p.o., at 60 min) was 1 out of the 4, the “Increased reactivity to touch (rats affected/tested)” value (rat; 60 mg/kg p.o., at 180 min) was 1 out of the 4 and the “General effects in the Irwin Test” value (rat; dose-range 10-60 mg/kg p.o.) was “weak and transient arousing effects in only one rat”. The Other signs (rat; up to 24 hours after administration, 10-60 mg/kg p.o.) was “no other signs were observed”.

For `CCCCCCCCCCCCCCCCS(=O)(=O)F` [AM374], the spasticity (CREAE mice) is listed as “significantly reduce spasticity”.

With `Cl.O=C(Nc1cccnc1)N1CCN(Cc2ccc3c(c2)OC(F)(F)O3)CC1` [Comparator Compound HCl] the “Increased reactivity to touch (rats affected/tested)” value (rat; 10 mg/kg p.o., at 15 min) was “all 3 rats; also recorded: (3/3) at 15”, the “Sedative/depressant effects (sedation, motor signs and hypothermia)” value (rat; 60 mg/kg p.o.) was “presence of sedative/depressant effects” and the “Sedation (rats affected/tested)” value (rat; 60 mg/kg p.o., 15 to 120 min) was “all 3 rats; also recorded: (3/3) 15 to 120 min”. The Hypothermia (rat; 60 mg/kg p.o.) was “induced hypothermia; also recorded: slight induction at 15”, the “Decreased muscle tone (rats affected/tested)” value (rat; 60 mg/kg p.o.) was “all 3 rats; also recorded: (3/3) at 60 to 120” and the “Abnormal gait (rolling) (rats affected/tested)” value (rat; 60 mg/kg p.o., at 15 min) was “all 3 rats; also recorded: (3/3) at 15 min”.

`O=C(Nc1cnccc1Cl)N1CCN(Cc2ccc3c(c2)OC(F)(F)O3)CC1` [Example 1] showed an IC50 (rat FAAH) of 0.32 µM, an IC50 (CYP2D6; [9]) of 24 µM and an IC50 (CYP2D6; [10]) of 11 µM. The IC50 (FAAH [1]) was 0.075 µM, the “Increased reactivity to touch (rats affected/tested)” value (rat; 10 mg/kg p.o., at 180 min) was “(1/4) at” and the “Abnormal gait (rats affected/tested)” value (rat; 60 mg/kg p.o.) was “(0/4)”. The “Hypothermia (rats affected/tested)” value (rat; 60 mg/kg p.o.) was “(0/4)”, the “Sedation (rats affected/tested)” value (rat; 60 mg/kg p.o.) was “(0/4)” and the “Increased abdominal muscle tone (rats affected/tested)” value (rat; 60 mg/kg p.o., at 60 min) was “(1/4) at 60 min”. The “Increased reactivity to touch (rats affected/tested)” value (rat; 60 mg/kg p.o., at 60 min) was “(1/4) at 60 min” and the “Increased reactivity to touch (rats affected/tested)” value (rat; 60 mg/kg p.o., at 180 min) was “(1/4) at 180 min”.

For `O=C(Nc1ccccc1)N1CCN(c2nc(-c3ccccc3)ns2)CC1` [4-(3-Phenyl-[1,2,4]thiadiazol-5-yl)-piperazine-1-carboxylic acid phenylamide], the “efficacy in neuropathic pain model” value [2] is given as “efficacious” and the “efficacy in acute burn injury pain model” value [3] is given as “efficacious”.

In the case of `NC(=O)c1cccc(-c2cccc(OC(=O)NC3CCCCC3)c2)c1` [URB-597], the “analgesic efficacy/activity, hot plate” value (rats [4]) is given as “analgesic efficacy”, the “analgesic efficacy, formalin test” value (rats [5]) is given as “analgesic efficacy” and the “efficacy in model of anxiety” value (rats [6]) is given as “efficacy”.

With `O=C(Nc1cccnc1)N1CCN(Cc2ccc3c(c2)OC(F)(F)O3)CC1` [Comparator Compound] the IC50 (CYP2D6; [9]) was 3.2 µM, the IC50 (CYP2D6; [10]) was 2 µM and the “Increased reactivity to touch (rats affected/tested)” value (rat; 10 mg/kg p.o., at 15 min) was “all rats tested”. For the same compound, the “Sedation (rats affected/tested)” value (rat; 60 mg/kg p.o., 15 to 120 min) was “all rats tested”, the Hypothermia (rat; 60 mg/kg p.o.) was “induced hypothermia” and the “Decreased muscle tone (rats affected/tested)” value (rat; 60 mg/kg p.o.) was “all rats”. The “Abnormal gait (rolling) (rats affected/tested)” value (rat; 60 mg/kg p.o., at 15 min) was “all rats tested”.

For `O=C(CCCCCCc1ccccc1)c1ncc(-c2ccccn2)o1` [OL-135], the “analgesic efficacy/activity, hot plate” value (rats [4]) is listed as “analgesic activity”, the FAAH inhibition (FAAH [7]) is listed as “potent inhibitor” and the “analgesic activity, tail immersion” value (rats [8]) is listed as “analgesic activity”.
